Experimental data published in patent publication US20200024278A1, “COMPOSITION COMPRISING ANTIBIOTIC COMPOUND AND AN HETEROCYCLIC COMPOUND AND THEIR USE IN PREVENTING OR TREATING BACTERIAL INFECTIONS” (MUTABILIS, priority 2016, published 2020).
Where two headings read alike, the source gives them in different places.

Assays:
Experiment in all cases: MIC, broth microdilution (CLSI), substance alone or ATB combined with compound at 4 or 8 μg/mL
[1] = tested on: ECL P99; type: cell-based, E. cloacae; conditions: for MIC: Enterobacter cloacae
Procedure, shortened: (§1)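 Per CLSI-M7-A7, MICs are determined in cation-adjusted Mueller-Hinton broth with a final inoculum of 5·10^5 CFU/mL. Plates incubate 16-20 h at 35° C in air and are read by eye. Fosfomycin assays carry 25 μg/ml glucose-6-phosphate.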

[2] = tested on: PAE 105250; type: cell-based, P. aeruginosa; conditions: PAE 105250
Procedure, shortened: as §1

[3] = tested on: PAE UFR48; type: cell-based, P. aeruginosa; conditions: PAE UFR48
Procedure, shortened: as §1

[4] = tested on: PAE UFR90; type: cell-based, P. aeruginosa; conditions: PAE UFR90
Procedure, shortened: as §1

[5] = tested on: SAU 29213; type: cell-based, S. aureus; conditions: SAU 29213
Procedure, shortened: as §1

[6] = tested on: SPN 49619; type: cell-based, S. pneumoniae; conditions: SPN 49619
Procedure, shortened: as §1

[7] = Pseudomonas aeruginosa, antibiotic alone, read-out: MIC ATB alone

In the case of C=CC1=C(C(=O)O)N2C(=O)[C@@H](NC(=O)/C(=N\OCC(=O)O)c3csc(N)n3)[C@H]2SC1 [FIX, Cefixime, reference compound], the “MIC ATB combined with Example 9 @4 μg/ml” value ([1]; ECL P99, with Example 9 at 4 μg/ml) is reported as less than 0.031 µg/mL, the “MIC ATB combined with Example 11 @8 μg/ml” value ([1]; ECL P99, with Example 11 at 8 μg/ml) is reported as less than 0.031 µg/mL and the “MIC ATB combined with Example 12 @8 μg/ml” value ([1]; ECL P99, with Example 12 at 8 μg/ml) is reported as less than 0.031 µg/mL. For the same molecule, the “MIC ATB combined with Example 13 @8 μg/ml” value ([1]; ECL P99, with Example 13 at 8 μg/ml) was 8 µg/mL, the “MIC ATB combined with Example 14 @8 μg/ml” value ([1]; ECL P99, with Example 14 at 8 μg/ml) was less than 0.031 µg/mL and the “MIC ATB combined with Example 15 @4 μgml” value ([1]; ECL P99, with Example 15 at 4 μg/ml) was less than 0.031 µg/mL. For the same molecule, the “MIC ATB combined with Example 16 @4 μg/ml” value ([1]; ECL P99, with Example 16 at 4 μg/ml) was less than 0.031 µg/mL, the MIC [1] was greater than 128 µg/mL and the MIC ([1]; ECL P99, antibiotic alone, read-out: MIC ATB alone) was greater than 512 µg/mL. The “MIC ATB combined with Example 1 @8 μg/ml” value ([2]; with Example 1 @8 μg/ml) was less than 0.031 µg/mL, the “MIC ATB combined with Example 1 @8 μg/ml” value ([2]; with Example 1 at 8 μg/ml) was less than 0.031 µg/mL and the “MIC ATB combined with Example 7 @8 μgml” value ([2]; with Example 7 at 8 μg/ml) was greater than 32 µg/mL. For the same molecule, the “MIC ATB combined with Example 9 @4 μg/ml” value ([2]; with Example 9 @4 μg/ml) was greater than 32 µg/mL, the “MIC ATB combined with Example 9 @4 μg/ml” value ([2]; with Example 9 at 4 μg/ml) was greater than 32 µg/mL and the “MIC ATB combined with Example 11 @8 μg/ml” value ([2]; with Example 11 at 8 μg/ml) was greater than 32 µg/mL. For the same molecule, the “MIC ATB combined with Example 12 @8 μg/ml” value ([2]; with Example 12 at 8 μg/ml) was greater than 32 µg/mL, the “MIC ATB combined with Example 13 @8 μg/ml” value ([2]; with Example 13 at 8 μg/ml) was greater than 32 µg/mL and the “MIC ATB combined with Example 14 @8 μg/ml” value ([2]; with Example 14 at 8 μg/ml) was greater than 32 µg/mL. The “MIC ATB combined with Example 15 @4 μgml” value ([2]; with Example 15 at 4 μg/ml) was greater than 32 µg/mL, the “MIC ATB combined with Example 16 @4 μg/ml” value ([2]; with Example 16 at 4 μg/ml) was greater than 32 µg/mL and the MIC [2, 7] was greater than 512 µg/mL. The “MIC ATB combined with Example 1 @8 μg/ml” value ([3]; with Example 1 @8 μg/ml) was less than 0.031 µg/mL, the “MIC ATB combined with Example 1 @8 μg/ml” value ([3]; with Example 1 at 8 μg/ml) was less than 0.031 µg/mL and the “MIC ATB combined with Example 7 @8 μgml” value ([3]; with Example 7 at 8 μg/ml) was greater than 32 µg/mL. For the same molecule, the “MIC ATB combined with Example 9 @4 μg/ml” value ([3]; with Example 9 @4 μg/ml) was greater than 32 µg/mL, the “MIC ATB combined with Example 9 @4 μg/ml” value ([3]; with Example 9 at 4 μg/ml) was greater than 32 µg/mL and the “MIC ATB combined with Example 11 @8 μg/ml” value ([3]; with Example 11 at 8 μg/ml) was greater than 32 µg/mL. For the same molecule, the “MIC ATB combined with Example 12 @8 μg/ml” value ([3]; with Example 12 at 8 μg/ml) was greater than 32 µg/mL, the “MIC ATB combined with Example 13 @8 μg/ml” value ([3]; with Example 13 at 8 μg/ml) was greater than 32 µg/mL and the “MIC ATB combined with Example 14 @8 μg/ml” value ([3]; with Example 14 at 8 μg/ml) was greater than 32 µg/mL. The “MIC ATB combined with Example 15 @4 μgml” value ([3]; with Example 15 at 4 μg/ml) was greater than 32 µg/mL, the “MIC ATB combined with Example 16 @4 μg/ml” value ([3]; with Example 16 at 4 μg/ml) was greater than 32 µg/mL and the MIC [3, 7] was greater than 512 µg/mL. For the same molecule, the “MIC ATB combined with Example 1 @8 μg/ml” value ([4]; with Example 1 @8 μg/ml) was less than 0.031 µg/mL, the “MIC ATB combined with Example 1 @8 μg/ml” value ([4]; with Example 1 at 8 μg/ml) was less than 0.031 µg/mL and the “MIC ATB combined with Example 7 @8 μgml” value ([4]; with Example 7 at 8 μg/ml) was greater than 32 µg/mL. For the same molecule, the “MIC ATB combined with Example 9 @4 μg/ml” value ([4]; with Example 9 @4 μg/ml) was greater than 32 µg/mL, the “MIC ATB combined with Example 9 @4 μg/ml” value ([4]; with Example 9 at 4 μg/ml) was greater than 32 µg/mL and the “MIC ATB combined with Example 11 @8 μg/ml” value ([4]; with Example 11 at 8 μg/ml) was greater than 32 µg/mL. For the same molecule, the “MIC ATB combined with Example 12 @8 μg/ml” value ([4]; with Example 12 at 8 μg/ml) was greater than 32 µg/mL, the “MIC ATB combined with Example 13 @8 μg/ml” value ([4]; with Example 13 at 8 μg/ml) was greater than 32 µg/mL and the “MIC ATB combined with Example 14 @8 μg/ml” value ([4]; with Example 14 at 8 μg/ml) was greater than 32 µg/mL. The “MIC ATB combined with Example 15 @4 μgml” value ([4]; with Example 15 at 4 μg/ml) was greater than 32 µg/mL, the “MIC ATB combined with Example 16 @4 μg/ml” value ([4]; with Example 16 at 4 μg/ml) was greater than 32 µg/mL and the MIC [4, 7] was greater than 32 µg/mL. The “MIC ATB combined with Example 1 @8 μg/ml” value ([5]; with Example 1 @8 μg/ml) was 16 µg/mL, the “MIC ATB combined with Example 1 @8 μg/ml” value ([5]; with Example 1 at 8 μg/ml) was 16 µg/mL and the “MIC ATB combined with Example 7 @8 μgml” value ([5]; with Example 7 at 8 μg/ml) was 8 µg/mL. The “MIC ATB combined with Example 9 @4 μg/ml” value ([5]; with Example 9 @4 μg/ml) was “<=0.031 μg/mL”, the “MIC ATB combined with Example 9 @4 μg/ml” value ([5]; with Example 9 at 4 μg/ml) was “<=0.031 μg/mL” and the “MIC ATB combined with Example 11 @8 μg/ml” value ([5]; with Example 11 at 8 μg/ml) was 0.125 µg/mL. For the same molecule, the “MIC ATB combined with Example 12 @8 μg/ml” value ([5]; with Example 12 at 8 μg/ml) was less than 0.031 µg/mL, the “MIC ATB combined with Example 13 @8 μg/ml” value ([5]; with Example 13 at 8 μg/ml) was 4 µg/mL and the “MIC ATB combined with Example 14 @8 μg/ml” value ([5]; with Example 14 at 8 μg/ml) was less than 0.031 µg/mL. For the same molecule, the “MIC ATB combined with Example 15 @4 μgml” value ([5]; with Example 15 at 4 μg/ml) was less than 0.031 µg/mL, the “MIC ATB combined with Example 16 @4 μg/ml” value ([5]; with Example 16 at 4 μg/ml) was less than 0.031 µg/mL and the MIC ([5]; Staphylococcus aureus, antibiotic alone, read-out: MIC ATB alone) was 16 µg/mL. For the same molecule, the “MIC ATB combined with Example 1 @8 μg/ml” value ([6]; with Example 1 @8 μg/ml) was 1 µg/mL, the “MIC ATB combined with Example 1 @8 μg/ml” value ([6]; with Example 1 at 8 μg/ml) was 1 µg/mL and the “MIC ATB combined with Example 7 @8 μgml” value ([6]; with Example 7 at 8 μg/ml) was 1 µg/mL. For the same molecule, the “MIC ATB combined with Example 9 @4 μg/ml” value ([6]; with Example 9 @4 μg/ml) was 0.25 µg/mL, the “MIC ATB combined with Example 9 @4 μg/ml” value ([6]; with Example 9 at 4 μg/ml) was 0.25 µg/mL and the “MIC ATB combined with Example 11 @8 μg/ml” value ([6]; with Example 11 at 8 μg/ml) was 0.25 µg/mL. The “MIC ATB combined with Example 12 @8 μg/ml” value ([6]; with Example 12 at 8 μg/ml) was less than 0.031 µg/mL, the “MIC ATB combined with Example 13 @8 μg/ml” value ([6]; with Example 13 at 8 μg/ml) was 0.5 µg/mL and the “MIC ATB combined with Example 14 @8 μg/ml” value ([6]; with Example 14 at 8 μg/ml) was less than 0.031 µg/mL. The “MIC ATB combined with Example 15 @4 μgml” value ([6]; with Example 15 at 4 μg/ml) was 0.25 µg/mL, the “MIC ATB combined with Example 16 @4 μg/ml” value ([6]; with Example 16 at 4 μg/ml) was less than 0.031 µg/mL and the MIC ([6]; Streptococcus pneumoniae, antibiotic alone, read-out: MIC ATB alone) was 1 µg/mL.
